Data: article PMC11110133, “Thiophene-fused γ-lactams inhibit the SARS-CoV-2 main protease via reversible covalent acylation” (Chemical Science, 2024)
Like-named read-outs stand apart in the source and are kept apart here.

Legend:
M^pro [1] = conditions: mass spectrometric analyses; cited from earlier work
[2] = target: T1, isolated recombinant SARS-CoV-2 M^pro (Severe acute respiratory syndrome coronavirus 2, UniProt P0DTD1); set-up: method as in PMID 35549342; conditions: cited from earlier work; for IC50: reported M^pro inhibition
[3] = target: T1, isolated recombinant SARS-CoV-2 M^pro; experiment: SPE-MS SARS-CoV-2 Mpro inhibition assay; format: biochemical; conditions: for IC50: SPE-MS, SARS-CoV-2 M^pro 0.05 μM, substrate peptide 2.0 μM, mean ± SD of two independent runs (n = 2); for fold increase in M^pro inhibition potency relative to γ-lactam 7: relative to 7; for fold more efficient M^pro inhibition than pyrazolidinone 6: relative to reported pyrazolidinone 6; for fold more efficient M^pro inhibition than γ-lactam 5: relative to reported γ-lactam 5
[4] = target: T1, isolated recombinant SARS-CoV-2 M^pro; format: binding; conditions: for covalent reaction with M^pro (protein-observed MS): M^pro 3.0 μM, γ-lactam 15 μM, 20 mM HEPES pH 7.5, 4 h incubation
M^pro [5] = tested on: M^pro; set-up: method as in PMID 37866713; conditions: reported M^pro inhibition; cited from earlier work

What does the source list for `CC1(C)C(C(=O)OCc2ccccc2)N2C(=O)C(NC(=O)COc3ccccc3)C2S1(=O)=O` (stereo not drawn) [compound 3, penicillin V sulfone benzyl ester]?
covalent reaction with M^pro (reported) (M^pro [1]): covalent reaction of its β-lactam with the active site Cys145; IC50 [2]: ~6.6 µM

With `COc1ccc(S(=O)(=O)N2C(=O)Cc3ccsc32)cc1` [C00021] as the compound, how does the IC50 ([3]; read-out: IC50) read?
Its IC50 is 2.7 ± 0.2 µM.

With `CS(=O)(=O)N1C(=O)C(CCC#N)c2ccsc21` (racemic) [16e] as the compound, how does the IC50 ([3]; read-out: IC50) read?
The IC50 was about 2.7 µM.

With `CC1C(=O)N(S(C)(=O)=O)c2sccc21` (stereo not drawn) [16a] as the compound, how does the “complex observed after adding excess 24 to the M^pro:16a mixture (reversibility)” value ([4]; 16a with M^pro 2 h at 0 °C (1 : 5), then 24 for 3 h at 0 °C, SPE-MS) read?
Its value is “not detected”.

And the “covalent reaction with the covalent M^pro:nirmatrelvir alkyne (24) complex (Cys145 blocked)” value ([4]; M^pro 3.0 μM pre-reacted with 24, then 16a 15 μM, 2 h)?
The value was “does not covalently react”.

And the “covalent reaction with M^pro (protein-observed MS)” value [4]?
The value was “react covalently”.

And the “fold increase in M^pro inhibition potency relative to γ-lactam 7” value [3]?
The value was about 2 fold.

Which IC50 ([3]; read-out: IC50) does the source give for `O=C1Cc2ccsc2N1S(=O)(=O)c1ccc(C(F)(F)F)cc1` [C00023] here?
Its IC50 is 1.3 ± 0.1 µM.

With `CS(=O)(=O)N1C(=O)C2(CC=CC2)c2ccsc21` [C00013] as the compound, how does the IC50 ([3]; read-out: IC50) read?
Its IC50 is 61 ± 4 µM.

Which IC50 ([3]; read-out: IC50) does the source give for `CC(=O)N1C(=O)Cc2ccsc21` [C00018] here?
The IC50 was over 100 µM.

For `CS(=O)(=O)N1C(=O)C(Cc2ccccc2)c2ccsc21` (racemic) [16d], which IC50 ([3]; read-out: IC50) is on record?
Its IC50 is about 4 µM.

Which IC50 [3] does the source give for `C=CCC1(CC=C)C(=O)N(S(C)(=O)=O)c2sccc21` [17b] here?
Its IC50 is “did not inhibit”.

With `CS(=O)(=O)n1c(=O)n(S(C)(=O)=O)c2cscc21` [C00004] as the compound, how does the IC50 ([3]; read-out: IC50) read?
Its IC50 is over 100 µM.

For `CS(=O)(=O)N1C(=O)C(Cc2ccccc2)c2ccsc21` (racemic) [C00014], which IC50 ([3]; read-out: IC50) is on record?
The IC50 was 4 ± 0.4 µM.

With `CS(=O)(=O)N1C(=O)Cc2cscc21` [C00003] as the compound, how does the IC50 ([3]; read-out: IC50) read?
Its IC50 is over 100 µM.

Which IC50 ([3]; read-out: IC50) does the source give for `C=CCC1(CC=C)C(=O)N(S(C)(=O)=O)c2sccc21` [C00011] here?
Its IC50 is over 100 µM.

Which IC50 ([3]; read-out: IC50) does the source give for `CS(=O)(=O)N1C(=O)Cc2sccc21` [C00002] here?
Its IC50 is 8.4 ± 0.5 µM.

For `O=C(O)C1=C(C(=O)N(Cc2ccccc2)Cc2ccccc2)CN2C[C@H](NC(=O)[C@H](Cc3ccccc3)NC(=O)c3cc4ccccc4[nH]3)C(=O)N12` [compound 6], which IC50 (M^pro [5]) is on record?
Its IC50 is about 45 µM.

Which IC50 ([3]; read-out: IC50) does the source give for `CS(=O)(=O)N1C(=O)Cc2ccccc21` [C00005] here?
Its IC50 is over 100 µM.

For `CS(=O)(=O)N1C(=O)C2(CC=CC2)c2sccc21` [compound 19], which IC50 [3] is on record?
Its IC50 is “did not efficiently inhibit”.

With `O=C1Cc2ccsc2N1S(=O)(=O)Cc1ccccc1` [C00019] as the compound, how does the IC50 ([3]; read-out: IC50) read?
Its IC50 is 4.3 ± 0.1 µM.

Which IC50 ([3]; read-out: IC50) does the source give for `O=C1Cc2ccsc2N1S(=O)(=O)c1ccc([N+](=O)[O-])cc1` [C00022] here?
Its IC50 is 4.4 ± 0.7 µM.

Which IC50 [3] does the source give for `CS(=O)(=O)N1C(=O)Cc2ccccc21` [compound 11] here?
Its IC50 is “did not inhibit”.

With `CS(=O)(=O)N1C(=O)C2(CC=CC2)c2sccc21` [C00015] as the compound, how does the IC50 ([3]; read-out: IC50) read?
Its IC50 is over 100 µM.

With `CS(=O)(=O)N1C(=O)Cc2ccsc21` [C00001] as the compound, how does the IC50 ([3]; read-out: IC50) read?
The IC50 was 8.5 ± 1.4 µM.

With `C=CCC1C(=O)N(S(C)(=O)=O)c2sccc21` (racemic) [16f] as the compound, how does the IC50 ([3]; read-out: IC50) read?
The IC50 was about 3.5 µM.

With `CS(=O)(=O)N1C(=O)C(CCC#N)c2ccsc21` (racemic) [C00007] as the compound, how does the IC50 ([3]; read-out: IC50) read?
The IC50 was 2.7 ± 0.1 µM.

Which IC50 [3] does the source give for `CC(=O)N1C(=O)Cc2ccsc21` [23a] here?
The IC50 was “ablated M^pro inhibition”.

For `O=C1Cc2ccsc2N1S(=O)(=O)c1ccccc1` [C00020], which IC50 ([3]; read-out: IC50) is on record?
The IC50 was 4.7 ± 1.1 µM.

For `CS(=O)(=O)N1C(=O)Cc2ccsc21` [C00017], which IC50 ([3]; read-out: IC50) is on record?
Its IC50 is 8.5 ± 1.4 µM.

Which IC50 [3] does the source give for `CS(=O)(=O)n1c(=O)n(S(C)(=O)=O)c2cscc21` [compound 10] here?
Its IC50 is “did not result in inhibition”.

Which IC50 ([3]; read-out: IC50) does the source give for `CC(C)C1C(=O)N(S(C)(=O)=O)c2sccc21` (racemic) [16c] here?
Its IC50 is about 16 µM.

And the “fold less efficient M^pro inhibition than 16b” value ([3]; relative to propyl-substituted 16b)?
The value was about 5 fold.

For `CS(=O)(=O)N1C(=O)Cc2sccc21` [compound 8], which “covalent reaction with M^pro (protein-observed MS)” value [4] is on record?
Its value is “react covalently”.

What about the IC50 ([3]; read-out: IC50) of the same compound?
The IC50 was about 8.4 µM.

And the “fold more efficient M^pro inhibition than pyrazolidinone 6” value [3]?
The value was about 5 fold.

What about the “fold more efficient M^pro inhibition than γ-lactam 5” value [3] of the same compound?
The value was about 3 fold.

Which IC50 ([3]; read-out: IC50) does the source give for `C=CCC1C(=O)N(S(C)(=O)=O)c2sccc21` (racemic) [C00009] here?
The IC50 was 3.5 ± 0.2 µM.

What does the source list for `O=C1Cc2ccsc2N1S(=O)(=O)c1ccc(C(F)(F)F)cc1` [23f]?
IC50 ([3]; read-out: IC50): ~1.3 µM; fold increase in M^pro inhibition potency relative to γ-lactam 7 [3]: ~6 fold; fold more potent than γ-lactam 23c ([3]; relative to 23c): ~3 fold; fold more efficient M^pro inhibition than β-lactam 3 ([3]; relative to reported β-lactam 3): ~6 fold; fold more efficient M^pro inhibition than γ-lactam 5 [3]: ~20 fold

Which “covalent reaction with M^pro (protein-observed MS)” value [4] does the source give for `CCCC1C(=O)N(S(C)(=O)=O)c2sccc21` (stereo not drawn) [16b] here?
Its value is “react covalently”.

With `O=C1Cc2ccsc2N1S(=O)(=O)Cc1ccccc1` [23b] as the compound, how does the “covalent reaction with M^pro (protein-observed MS)” value [4] read?
Its value is “react covalently”.

And the “fold increase in M^pro inhibition potency relative to γ-lactam 7” value [3]?
The value was about 2 fold.

For `CC(C)C1C(=O)N(S(C)(=O)=O)c2sccc21` (racemic) [C00012], which IC50 ([3]; read-out: IC50) is on record?
Its IC50 is 16 ± 2 µM.

Which “fold increase in M^pro inhibition potency relative to γ-lactam 7” value [3] does the source give for `O=C1Cc2ccsc2N1S(=O)(=O)c1ccccc1` [23c] here?
Its value is about 2 fold.

Which IC50 ([3]; read-out: IC50) does the source give for `CCCC1C(=O)N(S(C)(=O)=O)c2sccc21` (stereo not drawn) [C00010] here?
Its IC50 is 3.2 ± 0.8 µM.

Which results are given for `CS(=O)(=O)N1C(=O)Cc2ccsc21` [compound 7]?
covalent reaction with M^pro (protein-observed MS) [4]: react covalently; IC50 ([3]; read-out: IC50): ~8.5 µM; fold more efficient M^pro inhibition than pyrazolidinone 6 [3]: ~5 fold; fold more efficient M^pro inhibition than γ-lactam 5 [3]: ~3 fold

With `CC1(C)C(C(=O)OCc2ccccc2)N2C(=O)C(NC(=O)COc3ccccc3)CC2S1(=O)=O` (stereo not drawn) [compound 5] as the compound, how does the “covalent reaction with M^pro (reported)” value (M^pro [1]) read?
Its value is “did not react to form a stable acyl–enzyme complex”.

And the “fold less efficient M^pro inhibition than β-lactam 3” value ([2]; relative to β-lactam 3)?
Its value is about 4 fold.

And the IC50 [2]?
The IC50 was about 26.1 µM.

For `CS(=O)(=O)N1C(=O)Cc2cscc21` [compound 9], which IC50 [3] is on record?
The IC50 was “did not inhibit”.

For `COc1ccc(S(=O)(=O)N2C(=O)Cc3ccsc32)cc1` [23d], which “covalent reaction with M^pro (protein-observed MS)” value [4] is on record?
Its value is “react covalently”.

With `CS(=O)(=O)N1C(=O)C2(CC=CC2)c2ccsc21` [compound 18] as the compound, how does the IC50 [3] read?
The IC50 was “did not efficiently inhibit”.

For `CC1(C)C(=O)N(S(C)(=O)=O)c2sccc21` [C00008], which IC50 ([3]; read-out: IC50) is on record?
The IC50 was over 100 µM.

With `CC1C(=O)N(S(C)(=O)=O)c2sccc21` (stereo not drawn) [C00006] as the compound, how does the IC50 ([3]; read-out: IC50) read?
Its IC50 is 3.9 ± 0.1 µM.

For `CC1(C)C(=O)N(S(C)(=O)=O)c2sccc21` [17a], which IC50 [3] is on record?
Its IC50 is “did not inhibit”.
